≈ marks a conversion by molar mass, not a printed value. Where two headings read alike, the source gives them in different places.

One may read the IC50 as the concentration that inhibits the measured activity by half. What is called inhibition is the percentage by which the read-out fell short of the control. The low end stands for a response near the control, the high end for a response far below the control. The solubility is how much of the substance goes into solution per volume.

One series deals with visceral pain. Nature of the series: Visceral pain, acetic acid induced writhing responses. Type of series: in vivo, ICR mice. To be noted: for number of writhing responses: alone or combined with 0.5 mg/kg CPZ; for reduction of writhing responses as compared to vehicle treated animals: second study. The protocol:
For the i.v. part of the study, compounds were dissolved in CREMOPHOR®:Ethanol and diluted 1:20 in saline prior to injection, fifteen minutes before pain induction. When compounds were delivered per os, they were dissolved in phosphate buffer or in CREMOPHOR®:Ethanol as previously described and administered 1 hour before pain induction. Each treatment group, except for controls comprising at least 30 animals, was composed of at least 6 animals. Fifteen or sixty minutes later, depending on the route selected for drug administration, the mice were injected i.p. with 10 ml/kg of 0.6% acetic acid and the number of visceral pain related behaviors (writhing, stretching, contractions of the abdomen accompanied by an elongation of the body and extension of the hind limbs) is counted over a period of 5 minutes, starting 5 minutes after the acetic acid administration. These visceral pain related behaviors are globally defined as writhing responses (WR). The results are expressed as mean number of writhing responses±SEM. Data were analyzed using analysis of variance (ANOVA) followed by post-hoc Fisher test. A value of p<0.05 was considered to be statistically significant and is indicated on the figure by an asterisk over the relevant treatment group.
The following results were obtained at 2 mg/kg i.v. of test compounds or, in the case of the study performed with cannabinoid receptor antagonists, 1 mg/kg test compound or antagonist alone and 1 mg/kg test compound+1 mg/kg antagonist. In a separate study, it was shown that analgesic activity of compounds of the invention was dose related.
(An intraperitoneal irritant provokes the stretching counted in writhing tests.)

Another series deals with CB1 receptor (Homo sapiens, UniProt P21554). Nature of the series: CB1 binding assay.
Chain of CB1 receptor (P21554 whole entry): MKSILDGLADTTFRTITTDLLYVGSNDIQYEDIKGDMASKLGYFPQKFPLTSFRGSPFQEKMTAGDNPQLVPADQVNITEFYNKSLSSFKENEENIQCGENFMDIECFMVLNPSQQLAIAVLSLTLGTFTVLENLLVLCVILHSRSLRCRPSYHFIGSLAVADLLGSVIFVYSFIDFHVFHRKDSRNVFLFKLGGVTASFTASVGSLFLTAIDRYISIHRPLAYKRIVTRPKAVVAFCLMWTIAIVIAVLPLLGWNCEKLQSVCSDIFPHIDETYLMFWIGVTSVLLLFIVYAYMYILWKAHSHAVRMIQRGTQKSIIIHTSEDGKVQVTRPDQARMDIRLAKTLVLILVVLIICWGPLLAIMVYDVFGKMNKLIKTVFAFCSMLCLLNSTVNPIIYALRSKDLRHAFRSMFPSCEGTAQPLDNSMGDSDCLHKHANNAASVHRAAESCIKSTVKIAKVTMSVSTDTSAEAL
The subject of series [1] is Taxol® induced neuropathic pain. The series can be described thus: Taxol® induced neuropathic pain. Type of series: in vivo, Sprague Dawley rats. How it is done: Male Sprague Dawley rats (average body weight 150-200 g, Harlan, Israel) were administered i.p. with 6 mg/kg Taxol® (Bristol Myers Squibb, USA) every other day for 9 days. On day 13, baseline pain threshold was measured. One hour later, the animals were administered with 5 ml/kg i.p. of vehicle (PB) only and pain threshold was re-established. After an additional hour animals were treated with various doses of compound 18F ranging from 0.5 mg/kg up to 10 mg/kg administered i.p. Morphine at 5 mg/kg i.p. and gabapentin at 100 mg/kg i.p served as positive controls. Each treatment group comprised at least eight animals. One hour post drug administration pain threshold was monitored using thermal and mechanical stimuli as previously described. At the end of the study, rats were euthanized with sodium pentobarbitone 100 mg/kg i.p. Sample rats were then transfused with saline and heparinized 4% formaldehyde solution. The L4-L5 area of the spinal cord and the sciatic nerve were taken for histopathology assessment.
The time latencies for thermal hyperalgesia, and force needed to induce pain of the different treatment groups are compared, using one way ANOVA (analysis of variance), followed by Duncan's post hoc test. A p<0.05 value was considered statistically significant and is indicated on the figure by an asterisk over the relevant treatment group.

The next series relates to acute pain. To be noted: pretreatment, administered orally; cited from earlier work.
A further series concerns RAW 264.7 macrophages. The series can be described thus: NO secretion of LPS activated RAW 264.7 macrophages (ELISA). Type of series: cell-based. The note with it: Mus musculus, RAW264.7, 24 hrs after LPS stimulation. How it is done: RAW 264.7 macrophages, a mouse cell line (ATCC # TIB 71), were grown in Dulbecco's modified Eagle's medium (DMEM) with 4 mM L-glutamine adjusted to contain 1.5 g/L sodium bicarbonate, 4.5 g/L glucose, and 10% heat inactivated fetal bovine serum. Cells were grown in tissue culture flasks and seeded at appropriate density into 6 wells tissue culture plates. Four million Raw cells in half a milliliter were stimulated with 1 μg/ml Lipopolysaccharide E. coli 055:B5 (DIFCO Laboratories). The mouse macrophages were pre-treated for one hour with controls or 10 μM of test compounds, and later on activated with LPS. RNA samples were extracted from the cells 3 hrs after activation and iNOS gene expression levels were analyzed by real-time RT-PCR as previously described. For western blot analysis, compounds were tested at 1, 5 and 10 μM and cells were harvested 24 hrs after LPS stimulation. Supernatant were collected and NO secretion was analyzed using ELISA. Cells were washed 3 times with cold PBS, scrapped and lyzed in 100 μl cell lysis buffer containing 20 mM HEPES, pH 7.6, 150 mM NaCl, 1.5 mM MgCl2, 0.2 mM EDTA, 1% Triton X-100, 10% glycerol, 1 mM DTT, 1 mM PMSF, 10 μg/ml aprotinin. 5 µg/ml leupeptin, 10 mM p-nitrophenyl phosphate, 100 mM β-glycerophosphate, 1 mM sodium fluoride, and 0.1 μM sodium orthovanadate. Cells were lyzed on ice for 10 minutes before further processing. […]

Series [2] in a line: Actual solubility in aqueous buffers / cosolvent (HPLC, spectrophotometer). Type of series: physicochemical. The note with it: for solubility: thermodynamic from solid. The protocol:
The actual solubility of certain compounds of the invention was assessed in aqueous buffers and final concentration of compounds was determined using HPLC and spectrophotometer methodologies. […] Therefore, compounds that were designed following the same rational yielded unexpectedly divergent outcome, for instance in connection with solubility in aqueous solutions.
It should be noted that following lyophilization compound 18F could be dissolved in 80 mM phosphate buffer at pH 6.9 even more efficiently at concentrations up to 60 mg/ml, about two order of magnitudes higher than expected.
Approximately 11 g of compound 18F were lyophilized in one lyophilization cycle. A cosolvent mixture comprising 38.6% w/v of compound 18F was divided into several dishes to fit the lyophilization chamber. As a result of lyophilization, a dry product with improved physical properties such as flowability and less stickiness was obtained.

On to `CCCCCCC(C)(C)c1cc(O)c([C@H]2CC(=O)C3CC2C3(C)C)c(OC(=O)/C=C/C(=O)O)c1` (single isomer, unassigned; (-)) [Compound 18F, (−)-4-{4-[1,1-Dimethylheptyl]-2-fumarate-6-hydroxy-phenyl}-6,6-dimethyl-bicyclo[3.1.1]heptan-2-one], for which the “number of writhing responses” value in the series on visceral pain (0.5 mg/kg compound 18F i.v.) came to 10; in the series with visceral pain (1 mg/kg compound 18F i.v.), 9. Moreover, the “reduction of writhing responses as compared to vehicle treated animals” value is recorded as 64% in the series with visceral pain (0.5 mg/kg i.v.) and 98% in the series with visceral pain (2 mg/kg i.v.). Besides, in the series on visceral pain (1 mg/kg i.v.), the “inhibition of the number of writhing responses” value was found to be 71%. Also, in the series on visceral pain (1 mg/kg i.v. + 1 mg/kg SR141716A), the “effect of addition of CB1 antagonist on analgesic activity” value is “only partially reversed”. In addition, the “effect of addition of CB2 antagonist on analgesic activity” value in the series on visceral pain (1 mg/kg i.v. + 1 mg/kg SR144528) is given as “significantly reversed”. Moreover, in the series on visceral pain (2 mg/kg i.v.), the “inhibition of writhing responses as compared to vehicle treated group” value is 94%. In addition, the “inhibition of writhing responses” value is given as 71% in the series on visceral pain (10 mg/kg p.o. in CREMOPHOR®:Ethanol) and 93% in the series on visceral pain (p.o. in phosphate buffer, highest dose tested (5 to 60 mg/kg)). Also, in the series with visceral pain (10 mg/kg p.o. in phosphate buffer), the “inhibition of pain response as compared to untreated animals” value turned out to be 61%. For the same compound, the “dose from which reduction of writhing responses was significant” value in the series on visceral pain (p.o. in phosphate buffer) amounted to 10 mg/kg. This compound showed a half-maximal inhibitory concentration (IC50) on CB1 receptor of 334 nM. The “effect on pain threshold” value in series [1] (10 mg/kg i.p., baseline 15 gm, untreated 5 gm) was “increased the pain threshold back to pre-Taxol® baseline”. For the same compound, in series [1] (1, 5 and 10 mg/kg i.p.), the “effect on pain threshold versus vehicle” value is recorded as “statistically significant from the vehicle treated animals”. Moreover, the “efficacy against acute pain” value with acute pain is “effective against acute pain”. The same compound gave an inhibition at 10 µM in the series with RAW 264.7 macrophages of 61%. In addition, the solubility was roughly 10 mg/mL (≈ 21.2 mM) in series [2] (80 mM phosphate buffer, aqueous buffer, 80 mM phosphate buffer, read-out: solubility of non-lyophilized material); no more than 60 mg/mL in series [2] (80 mM phosphate buffer, pH 6.9, aqueous buffer, lyophilized, 80 mM phosphate buffer, pH 6.9, read-out: solubility following lyophilization); no more than 12 mg/mL in series [2] (80 mM phosphate buffer, pH 7.8, aqueous buffer, 80 mM phosphate buffer, pH 7.8, read-out: actual solubility). For the same compound, the “actual solubility higher than expected” value in series [2] (80 mM phosphate buffer, pH 7.8 vs calculated) is “about 20 fold”. The “dissolution in organic cosolvent solution” value in series [2] (tert.butanol and water 62.5:32.5 (v/v)) was “up to 80 mg/ml”.
